# Laboratory results from patent US12208093B2 (THE JOHNS HOPKINS UNIVERSITY, priority 2016, dated 2025).
# Counter-ions that a name gives are not always drawn.
# Tested on: MDM2-IE2 interaction
# Test: Co-immunoprecipitation of MDM2 and IE2 in transfected HEK293 cells
# Assay type: cell-based
# Details: HEK293 cells transfected with IE1/2; emetine 75 nM or GCV 5 μM, 4 h
# Procedure: Transient transfections. HEK-293 cells seeded into 10 cm petri dishes were transfected with HCMV plasmid encoding IE1 and IE2 (pRL45) plasmid, 1 μg/dish, using Lipofectamine 2000 in serum free medium. After 6 h, 10% FBS containing media was added along with 10 μM of MG132. […] Cells were then harvested to prepare lysates for IP.
# Co-immunoprecipitation (IP) and immunoblotting. Non-infected, infected or emetine-treated HFFs were treated with MG132 (10 μM) for 12 h. Cells were harvested after 24 hpi and lysed with IP buffer containing 150 mM NaCl, 50 mM Tris pH 7.5, 2 mM EDTA, 0.5% TritonX-100 and 0.5% NP-40-40. 1 mg of lysate was precleared with bead slurry for 30 min. The precleared lysates were incubated with anti-MDM2 (2 μg) antibody overnight. The antibody complexes were isolated using protein A/G beads (Santa Cruz), washed three times with 50% IP buffer. The immunoprecipitate—protein A/G beads were boiled in SDS sample buffer, and the supernatant was analyzed on SDS-PAGE gels after immunoblotting as described previously. […] Reverse IPs were performed by pulling down the precleared lysates with either anti-p53 antibody or anti-RPS14 antibody and detected with MDM2. […] In other experiments, transfected or treated HEK293 cell lysates were pulled-down with anti-IE2 antibody and detected with anti-MDM2 antibody and vice-versa for reverse IP.
smiles,measurement,value
"CC[C@H]1CN2CCc3cc(OC)c(OC)cc3[C@@H]2C[C@@H]1C[C@H]1NCCc2cc(OC)c(OC)cc21 [emetine, emetine dihydrochloride hydrate]",interaction of MDM2 and IE2,significantly decreased
